Test results published in US20240327382A1 (ALMAC DISCOVERY LIMITED, priority 2021, published 2024).
Where a name gives a salt, the structure may show the parent alone.

Molecular target: T1, Full-length USP19 (Homo sapiens, UniProt O94966)
T1 construct: Full-length USP19 was purchased from Boston Biochem (E-576); purchased Boston Biochem E-576
T1 sequence (O94966 1-1318): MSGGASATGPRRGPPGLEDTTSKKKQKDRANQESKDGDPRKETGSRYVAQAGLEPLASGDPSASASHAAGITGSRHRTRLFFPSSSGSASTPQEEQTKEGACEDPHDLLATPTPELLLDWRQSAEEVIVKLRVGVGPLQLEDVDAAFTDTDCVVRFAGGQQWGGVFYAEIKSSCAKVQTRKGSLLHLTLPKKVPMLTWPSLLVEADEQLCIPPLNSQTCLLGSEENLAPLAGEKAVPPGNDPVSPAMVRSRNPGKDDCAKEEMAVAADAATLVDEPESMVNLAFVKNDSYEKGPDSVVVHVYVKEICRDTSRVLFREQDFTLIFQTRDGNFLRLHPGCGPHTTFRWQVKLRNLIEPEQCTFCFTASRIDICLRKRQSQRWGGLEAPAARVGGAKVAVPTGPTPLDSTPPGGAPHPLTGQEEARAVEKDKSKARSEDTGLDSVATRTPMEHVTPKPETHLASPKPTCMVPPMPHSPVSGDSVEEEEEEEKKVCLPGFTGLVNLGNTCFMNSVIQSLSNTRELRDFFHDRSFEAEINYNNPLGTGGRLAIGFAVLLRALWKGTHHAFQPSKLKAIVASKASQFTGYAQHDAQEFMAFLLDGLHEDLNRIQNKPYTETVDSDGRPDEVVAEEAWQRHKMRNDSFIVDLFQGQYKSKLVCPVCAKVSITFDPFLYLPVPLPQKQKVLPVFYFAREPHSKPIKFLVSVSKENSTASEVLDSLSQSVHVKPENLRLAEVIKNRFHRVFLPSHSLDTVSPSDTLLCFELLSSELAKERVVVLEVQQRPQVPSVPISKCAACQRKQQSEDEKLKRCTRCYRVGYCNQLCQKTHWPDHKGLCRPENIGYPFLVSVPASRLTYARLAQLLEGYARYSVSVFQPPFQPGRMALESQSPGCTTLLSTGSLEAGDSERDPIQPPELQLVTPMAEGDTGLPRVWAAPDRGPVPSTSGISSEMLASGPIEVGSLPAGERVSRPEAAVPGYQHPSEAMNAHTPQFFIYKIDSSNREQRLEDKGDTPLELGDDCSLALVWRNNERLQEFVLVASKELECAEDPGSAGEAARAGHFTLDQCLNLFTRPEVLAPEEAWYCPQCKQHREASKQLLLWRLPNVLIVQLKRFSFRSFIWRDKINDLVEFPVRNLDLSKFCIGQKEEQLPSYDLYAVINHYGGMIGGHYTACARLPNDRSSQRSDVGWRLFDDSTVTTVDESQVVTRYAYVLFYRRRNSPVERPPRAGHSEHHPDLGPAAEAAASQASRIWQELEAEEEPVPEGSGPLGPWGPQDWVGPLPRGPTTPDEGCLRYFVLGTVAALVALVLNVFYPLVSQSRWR
Assay: USP19 fluorescence polarisation (FP) assay, Ubiquitin-Lys-TAMRA substrate
Type: biochemical
Settings: average of at least two duplicate experiments
Procedure, shortened: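 Full-length human USP19 (added at 2.5 nM) was preincubated 30 min at RT with inhibitor (serial dilutions 200 μM to 2 μM) in 50 mM HEPES pH 7.4, 150 mM NaCl, 5 mM DTT, 0.05% BSA, 0.05% CHAPS. Ubiquitin-Lys-TAMRA isopeptide substrate (added at 500 nM) started the reaction, and FP (Ex 530/Em 575 nm) was read every 15 min over 90 min. IC50 came from non-linear regression of signal normalised to no-compound control, averaged over at least two duplicate experiments.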

| SMILES | IC50 [µM] |
| --- | --- |
| CC(C)(C)OC(=O)CN[C@@H]1CCN(C(=O)N2CC[C@@H](Cn3cnc(-c4ccccc4)cc3=O)C3(CCCC3)C2)[C@H](c2cc(F)ccc2F)C1 [Example 154, tert-Butyl ((2S,4R)-2-(2,5-difluorophenyl)-1-((R)-10-((6-oxo-4-phenylpyrimidin-1(6H)-yl)methyl)-7-azaspiro[4.5]decane-7-carbonyl)piperidin-4-yl)glycinate] | < 0.01 |
| N[C@@H]1CCN(C(=O)N2CCC(Cn3cnc(C4CC4)cc3=O)C3(CCCC3)C2)[C@H](c2ccccc2)C1 (stereo partly drawn) [Example 29, 3-((7-((2S,4R)-4-Amino-2-phenylpiperidine-1-carbonyl)-7-azaspiro[4.5]decan-10-yl)methyl)-6-cyclopropyl-pyrimidin-4(3H)-one] | < 0.01 |
| CN[C@@H]1CCN(C(=O)N2CC[C@@H](Cn3cnc4ccc(F)cc4c3=O)C3(CCCC3)C2)[C@H](c2cc(F)cc(F)c2)C1 [Example 153, 3-(((R)-7-((2S,4R)-2-(3,5-Difluorophenyl)-4-(methylamino)piperidine-1-carbonyl)-7-azaspiro[4.5]decan-10-yl)methyl)-6-fluoroquinazolin-4(3H)-one] | < 0.01 |
| CC1(C)CN(C(=O)N2CCNC[C@H]2c2ccccc2)CCC1Cn1ccc(-c2ccccc2)cc1=O (stereo partly drawn) [Example 20, 1-((3,3-Dimethyl-1-((R)-2-phenylpiperazine-1-carbonyl)piperidin-4-yl)methyl)-4-phenylpyridin-2(1H)-one] | 0.01 to 0.1 |
| C[C@H](CC(F)(F)F)C(=O)N1CCC(Cn2cnc(-c3ccccc3)cc2=O)C2(CCCC2)C1 (stereo partly drawn) [Example 4, 6-Phenyl-3-((7-((R)-4,4,4-trifluoro-2-methylbutanoyl)-7-azaspiro[4.5]decan-10-yl)methyl)pyrimidin-4(3H)-one] | 1 to 20 |
| CC(=O)N[C@@H]1CCN(C(=O)N2CC[C@@H](Cn3cnc(-c4ccccc4)cc3=O)C3(CCCC3)C2)[C@H](c2cc(F)ccc2F)C1 [Example 155, N-((2S,4R)-2-(2,5-Difluorophenyl)-1-((R)-10-((6-oxo-4-phenylpyrimidin-1(6H)-yl)methyl)-7-azaspiro[4.5]decane-7-carbonyl)piperidin-4-yl)acetamide] | < 0.01 |
| CN[C@@H]1CCN(C(=O)N2CC[C@@H](Cn3ccc(-c4ccccc4OC)cc3=O)C3(CCCC3)C2)[C@H](c2cc(F)cc(F)c2)C1 [Example 126, 1-(((R)-7-((2S,4R)-2-(3,5-Difluorophenyl)-4-(methylamino)piperidine-1-carbonyl)-7-azaspiro[4.5]decan-10-yl)methyl)-4-(2-methoxyphenyl)pyridin-2(1H)-one] | < 0.01 |
| CN[C@@H]1CCN(C(=O)N2CC[C@@H](Cn3cnc(-c4ccccc4)cc3=O)C3(CCCC3)C2)[C@H](c2ccccc2)C1 [Example 56, 3-(((R)-7-((2S,4R)-4-(Methylamino)-2-phenylpiperidine-1-carbonyl)-7-azaspiro[4.5]decan-10-yl)methyl)-6-phenylpyrimidin-4(3H)-one] | < 0.01 |
| Cn1ccc(N[C@@H]2CCN(C(=O)N3CC[C@@H](Cn4cnc(-c5ccccc5)cc4=O)C4(CCCC4)C3)[C@H](c3ccccc3)C2)n1 [Example 147, 3-(((R)-7-((2S,4R)-4-((1-Methyl-1H-pyrazol-3-yl)amino)-2-phenylpiperidine-1-carbonyl)-7-azaspiro[4.5]decan-10-yl)methyl)-6-phenylpyrimidin-4(3H)-one] | 0.1 to 1 |
| CN[C@@H]1CCN(C(=O)N2CC[C@@H](Cn3ccc(-c4ccccc4)cc3=O)C(C)(C)C2)[C@H](c2ccccc2)C1 [Example 72, 1-(((R)-3,3-Dimethyl-1-((2S,4R)-4-(methylamino)-2-phenylpiperidine-1-carbonyl)piperidin-4-yl)methyl)-4-phenylpyridin-2(1H)-one] | < 0.01 |
| O=C(N1CC[C@@H](Cn2cnc3ccc(F)cc3c2=O)C2(CCCC2)C1)N1CC[C@@H](N2CCOCC2)C[C@H]1c1ccccc1 [Example 171, 6-Fluoro-3-(((R)-7-((2S,4R)-4-morpholino-2-phenylpiperidine-1-carbonyl)-7-azaspiro[4.5]decan-10-yl)methyl)quinazolin-4(3H)-one hydrochloride] | 0.1 to 1 |
| CN[C@@H]1CCN(C(=O)N2CC[C@@H](Cn3ccc(-c4ccccc4)cc3=O)C3(CCCC3)C2)[C@H](c2cccc(F)c2)C1 [Example 64, 1-(((R)-7-((2S,4R)-2-(3-Fluorophenyl)-4-(methylamino)piperidine-1-carbonyl)-7-azaspiro[4.5]decan-10-yl)methyl)-4-phenylpyridin-2(1H)-one] | < 0.01 |
| N[C@@H]1CCN(C(=O)N2CCC(Cn3ccc(C(F)F)cc3=O)C3(CCCC3)C2)[C@H](c2ccccc2)C1 (stereo partly drawn) [Example 38, 1-((7-((2S,4R)-4-Amino-2-phenylpiperidine-1-carbonyl)-7-azaspiro[4.5]decan-10-yl)methyl)-4-(difluoromethyl) pyridin-2(1H)-one] | < 0.01 |
| N[C@@H]1CCN(C(=O)N2CCC(CN3CCOCC3=O)C3(CCCC3)C2)[C@H](c2ccccc2)C1 (stereo partly drawn) [Example 41, 4-((7-((2S,4R)-4-Amino-2-phenylpiperidine-1-carbonyl)-7-azaspiro[4.5]decan-10-yl)methyl) morpholin-3-one] | 0.01 to 0.1 |
| CN[C@@H]1CCN(C(=O)N2CC[C@@H](Cn3cnc4ccccc4c3=O)C3(CCCC3)C2)[C@H](c2cc(F)ccc2F)C1 [Example 199, 3-(((R)-7-((2S,4R)-2-(2,5-Difluorophenyl)-4-(methylamino)piperidine-1-carbonyl)-7-azaspiro[4.5]decan-10-yl)methyl)quinazolin-4(3H)-one] | < 0.01 |
| N[C@@H]1CCN(C(=O)N2CC[C@@H](Cn3cnc4ccc(F)cc4c3=O)C3(CCCC3)C2)[C@H](c2cc(F)cc(F)c2)C1 [Example 181, 3-(((R)-7-((2S,4R)-4-Amino-2-(3,5-difluorophenyl)piperidine-1-carbonyl)-7-azaspiro[4.5]decan-10-yl)methyl)-6-fluoroquinazolin-4(3H)-one hydrochloride] | < 0.01 |
| CN[C@@H]1CCN(C(=O)N2CC[C@@H](Cn3ccc(-c4ccccc4OC)cc3=O)C3(CCCC3)C2)[C@H](c2ccccc2)C1 [Example 53, 4-(2-Methoxyphenyl)-1-(((R)-7-((2S,4R)-4-(methylamino)-2-phenylpiperidine-1-carbonyl)-7-azaspiro[4.5]decan-10-yl)methyl)pyridin-2(1H)-one] | < 0.01 |
| CN[C@@H]1CCN(C(=O)N2CC[C@@H](CN3CCC(c4ccccc4OC)=CC3=O)C3(CCCC3)C2)[C@H](c2ccc(F)cc2F)C1 (racemic) [Example 127, 1-(((R)-7-((2S,4R)-2-(2,4-Difluorophenyl)-4-(methylamino)piperidine-1-carbonyl)-7-azaspiro[4.5]decan-10-yl)methyl)-4-(2-methoxyphenyl)-5,6-dihydropyridin-2(1H)-one and 1-(((S)-7-((2S,4R)-2-(2,4-Difluorophenyl)-4-(methylamino)piperidine-1-carbonyl)-7-azaspiro[4.5]decan-10-yl)methyl)-4-(2-methoxyphenyl)-5,6-dihydropyridin-2(1H)-one] | < 0.01 |
| CN[C@@H]1CCN(C(=O)N2CC[C@@H](Cn3cnc(-c4ccccc4)cc3=O)C3(CCCC3)C2)[C@H](c2ccc(F)cc2F)C1 [Example 94, 3-(((R)-7-((2S,4R)-2-(2,4-Difluorophenyl)-4-(methylamino)piperidine-1-carbonyl)-7-azaspiro[4.5]decan-10-yl)methyl)-6-phenylpyrimidin-4(3H)-one] | < 0.01 |
| Cc1ccccc1-c1cc(=O)n(C[C@@H]2CCN(C(=O)N3CC[C@@H](N)C[C@H]3c3cccc(F)c3)CC23CCCC3)cn1 [Example 81, 3-(((R)-7-((2S,4R)-4-Amino-2-(3-fluorophenyl)piperidine-1-carbonyl)-7-azaspiro[4.5]decan-10-yl)methyl)-6-(0-tolyl)pyrimidin-4(3H)-one] | < 0.01 |
